Assay results: the NIST ThermoML archive (doi:10.1016/j.fluid.2013.11.026)

Legend:
[1] = refractive index (Na D-line) (dimensionless); conditions: 101.33 kPa, Liquid, Standard Abbe refractometry
[2] = 101.33 kPa, Liquid, Vibrating tube method
[3] = excess molar enthalpy (molar enthalpy of mixing); xn = mol fraction of the nth substance listed; conditions: 101 kPa, Liquid, Calvet calorimetry
[4] = xn = mol fraction of the nth substance listed; conditions: 101 kPa, Liquid, Vibrating tube method

COC=O [methyl methanoate]
Conditions	mass density, [2] [kg/m3]	refractive index, [1]
291.15 K	977.21	1.3452
298.15 K	966.54	1.3415

COC=O [methyl methanoate] + CCCCC
291.15 K
Conditions	excess molar enthalpy [kcal/mol]	mass density [kg/m3]
[3], x1 = 0.1107	0.1511	–
[3], x1 = 0.2113	0.2758	–
[3], x1 = 0.3055	0.3714	–
[3], x1 = 0.3765	0.418	–
[3], x1 = 0.438	0.4412	–
[3], x1 = 0.4783	0.4484	–
[3], x1 = 0.5268	0.4539	–
[3], x1 = 0.5716	0.4503	–
[3], x1 = 0.6028	0.4398	–
[3], x1 = 0.6356	0.4264	–
[3], x1 = 0.6702	0.4089	–
[3], x1 = 0.7191	0.3817	–
[3], x1 = 0.7683	0.3425	–
[3], x1 = 0.8256	0.2882	–
[3], x1 = 0.8773	0.2266	–
[3], x1 = 0.9215	0.158	–
[3], x1 = 0.9587	0.0827	–
[4], x1 = 0.091	–	640.27
[4], x1 = 0.102	–	641.95
[4], x1 = 0.147	–	649.45
[4], x1 = 0.206	–	660.56
[4], x1 = 0.27	–	674.05
[4], x1 = 0.309	–	683.08
[4], x1 = 0.371	–	698.6
[4], x1 = 0.393	–	704.52
[4], x1 = 0.416	–	710.63
[4], x1 = 0.451	–	721.01
[4], x1 = 0.488	–	732.21
[4], x1 = 0.506	–	737.92
[4], x1 = 0.559	–	755.6
[4], x1 = 0.618	–	776.61
[4], x1 = 0.695	–	807.5
[4], x1 = 0.759	–	835.94
[4], x1 = 0.786	–	849.13
[4], x1 = 0.827	–	870.13
[4], x1 = 0.84	–	876.82
[4], x1 = 0.941	–	936.47
[4], x1 = 1	–	977.21

CCCCC [pentane]
Conditions	mass density, [2] [kg/m3]	refractive index, [1]
291.15 K	627.86	1.3589
298.15 K	620.89	1.3545

CCCCC [pentane] + CCCCOC=O
[4], x2 = 0
Conditions	mass density [kg/m3]
291.15 K	627.86
298.15 K	620.89

CCCCC [pentane] + CCCOC=O
[4], x2 = 0
Conditions	mass density [kg/m3]
291.15 K	627.86
298.15 K	620.89

CCCCC [pentane] + CCOC=O
[4], x2 = 0
Conditions	mass density [kg/m3]
291.15 K	627.86
298.15 K	620.89

CCCCC [pentane] + COC=O
Conditions	mass density [kg/m3]
[4], 291.15 K, x2 = 0	627.86

CCCOC=O [propyl methanoate]
Conditions	mass density, [2] [kg/m3]	refractive index, [1]
291.15 K	907.97	1.3778
298.15 K	899.86	1.3752

CCCOC=O [propyl methanoate] + CCCCC
Conditions	excess molar enthalpy, [3] [kcal/mol]	mass density, [4] [kg/m3]
291.15 K, x1 = 0.057	–	639.86
291.15 K, x1 = 0.0666	0.0844	–
291.15 K, x1 = 0.117	–	653.61
291.15 K, x1 = 0.1411	0.141	–
291.15 K, x1 = 0.166	–	665.38
291.15 K, x1 = 0.2072	0.1824	–
291.15 K, x1 = 0.26	–	688.38
291.15 K, x1 = 0.2696	0.2106	–
291.15 K, x1 = 0.308	–	700.63
291.15 K, x1 = 0.3154	0.2273	–
291.15 K, x1 = 0.3689	0.2395	–
291.15 K, x1 = 0.4172	0.2433	–
291.15 K, x1 = 0.448	–	737.83
291.15 K, x1 = 0.46	0.2431	–
291.15 K, x1 = 0.4953	0.2402	–
291.15 K, x1 = 0.5199	0.238	–
291.15 K, x1 = 0.537	–	763.24
291.15 K, x1 = 0.5543	0.2321	–
291.15 K, x1 = 0.5955	0.2218	–
291.15 K, x1 = 0.631	0.2122	–
291.15 K, x1 = 0.651	–	796.41
291.15 K, x1 = 0.678	0.1974	–
291.15 K, x1 = 0.703	–	812.04
291.15 K, x1 = 0.7184	0.1807	–
291.15 K, x1 = 0.7665	0.1597	–
291.15 K, x1 = 0.819	0.1322	848.4
291.15 K, x1 = 0.847	–	857.3
291.15 K, x1 = 0.879	0.0949	–
291.15 K, x1 = 0.938	–	886.86
291.15 K, x1 = 0.9403	0.0528	–
291.15 K, x1 = 1	–	907.97
298.15 K, x1 = 0.042	0.0468	–
298.15 K, x1 = 0.0505	–	631.54
298.15 K, x1 = 0.0794	–	638.09
298.15 K, x1 = 0.1081	0.114	–
298.15 K, x1 = 0.1375	–	651.43
298.15 K, x1 = 0.1456	0.158	–
298.15 K, x1 = 0.2012	–	666.5
298.15 K, x1 = 0.2109	0.2017	–
298.15 K, x1 = 0.2525	–	679.23
298.15 K, x1 = 0.2706	0.2294	–
298.15 K, x1 = 0.3178	–	695.79
298.15 K, x1 = 0.3317	0.2495	–
298.15 K, x1 = 0.3733	–	710.12
298.15 K, x1 = 0.3889	0.2596	–
298.15 K, x1 = 0.4303	–	725.46
298.15 K, x1 = 0.4431	0.2631	–
298.15 K, x1 = 0.4798	–	739.19
298.15 K, x1 = 0.4882	–	741.75
298.15 K, x1 = 0.4905	0.2627	–
298.15 K, x1 = 0.5353	0.2584	–
298.15 K, x1 = 0.5467	–	758.38
298.15 K, x1 = 0.5637	0.2548	–
298.15 K, x1 = 0.6019	–	774.28
298.15 K, x1 = 0.6149	0.245	–
298.15 K, x1 = 0.67	0.2326	–
298.15 K, x1 = 0.6778	–	796.75
298.15 K, x1 = 0.7271	0.2125	–
298.15 K, x1 = 0.7597	–	822.01
298.15 K, x1 = 0.7888	0.1809	–
298.15 K, x1 = 0.8079	–	837.19
298.15 K, x1 = 0.8503	–	850.78
298.15 K, x1 = 0.8511	0.141	–
298.15 K, x1 = 0.9096	0.0927	–
298.15 K, x1 = 0.9251	–	874.84
298.15 K, x1 = 0.9655	0.0442	–
298.15 K, x1 = 1	–	899.86
